Measurements from patent US11180474B2 (BRISTOL-MYERS SQUIBB COMPANY, priority 2016, dated 2021).
pIC50: −log10 of the molar value.

Target: T1, human TLR7 (Homo sapiens, UniProt Q9NYK1)
T1 construct: host or cells: HEK-Blue cells
T1 sequence (Q9NYK1 27-1049): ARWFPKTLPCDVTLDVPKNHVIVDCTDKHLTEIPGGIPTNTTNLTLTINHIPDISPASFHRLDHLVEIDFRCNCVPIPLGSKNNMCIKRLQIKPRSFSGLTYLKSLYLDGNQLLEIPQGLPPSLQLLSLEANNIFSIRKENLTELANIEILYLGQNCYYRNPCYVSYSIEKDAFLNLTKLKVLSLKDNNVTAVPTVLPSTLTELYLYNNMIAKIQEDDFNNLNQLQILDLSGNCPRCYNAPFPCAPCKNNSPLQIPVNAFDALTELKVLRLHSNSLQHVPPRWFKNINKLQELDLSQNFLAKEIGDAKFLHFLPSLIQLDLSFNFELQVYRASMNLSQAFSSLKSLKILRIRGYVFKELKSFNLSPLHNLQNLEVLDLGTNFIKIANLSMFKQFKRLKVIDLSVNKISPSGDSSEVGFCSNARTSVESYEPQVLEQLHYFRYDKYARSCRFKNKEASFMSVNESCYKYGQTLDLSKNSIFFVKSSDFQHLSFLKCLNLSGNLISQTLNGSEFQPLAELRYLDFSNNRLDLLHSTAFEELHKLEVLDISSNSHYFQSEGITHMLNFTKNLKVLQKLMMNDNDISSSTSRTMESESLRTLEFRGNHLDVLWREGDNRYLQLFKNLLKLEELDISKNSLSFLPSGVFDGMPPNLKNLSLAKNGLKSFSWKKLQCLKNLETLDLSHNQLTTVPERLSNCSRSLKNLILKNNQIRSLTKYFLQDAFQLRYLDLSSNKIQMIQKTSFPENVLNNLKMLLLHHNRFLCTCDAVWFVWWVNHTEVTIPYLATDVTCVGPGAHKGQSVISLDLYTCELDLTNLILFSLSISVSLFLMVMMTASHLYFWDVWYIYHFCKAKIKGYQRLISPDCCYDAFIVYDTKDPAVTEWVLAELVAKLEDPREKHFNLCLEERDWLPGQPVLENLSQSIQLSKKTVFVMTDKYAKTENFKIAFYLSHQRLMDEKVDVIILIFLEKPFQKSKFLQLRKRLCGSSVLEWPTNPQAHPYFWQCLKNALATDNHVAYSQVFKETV
Experiment: TLR7 inhibition reporter assay (HEK-Blue cells, SEAP reporter, gardiquimod stimulation)
Type: cell-based
Settings: HEK-Blue cells overexpressing human TLR7, gardiquimod 7.5 μM
Outline: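 SEAP readout via HEK-Blue Detection medium after 22 h at 37 °C, 5% CO2 defines inhibition, normalized between agonist-plus-DMSO wells and a reference inhibitor. Compound dose range 0.05 nM–50 μM; TLR7 cells at 15,000/well (gardiquimod), TLR8 at 20,000/well (R848).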

Compound | pIC50
COc1ccc(-c2[nH]c3ccc(C4CCN(CC(=O)NCCN(C)C)CC4)cc3c2CC(F)(F)F)cc1OC [Example 380, 2-(4-(2-(3,4-dimethoxyphenyl)-3-(2,2,2-trifluoroethyl)-1H-indol-5-yl)piperidin-1-yl)-N-(2-(dimethylamino)ethyl)acetamide] | 7.48
CNC(=O)CN1CCC(c2ccc3[nH]c(-c4ccc(OC)c(OC)c4)c(CC(F)F)c3c2)CC1 [Example 401, 2-(4-(3-(2,2-difluoroethyl)-2-(3,4-dimethoxyphenyl)-1H-indol-5-yl)piperidin-1-yl)-N-methylacetamide] | 6.88
CCC(CC)NC(=O)CN1CCC(c2ccc3[nH]c(-c4ccc(OC)c(OC)c4)c(CC(F)(F)F)c3c2)CC1 [Example 378, 2-(4-(2-(3,4-dimethoxyphenyl)-3-(2,2,2-trifluoroethyl)-1H-indol-5-yl)piperidin-1-yl)-N-(pentan-3-yl)acetamide] | 6.21
COc1ccc(-c2[nH]c3ccc(C4CCN(C(=O)Cc5nnn[nH]5)CC4)cc3c2CC(F)(F)F)cc1OC [Example 341, 1-(4-(2-(3,4-dimethoxyphenyl)-3-(2,2,2-trifluoroethyl)-1H-indol-5-yl)piperidin-1-yl)-2-(1H-tetrazol-5-yl)ethan-1-one] | 5.30
CCNC(=O)N1CCC(c2ccc3[nH]c(-c4ccc(OC)c(OC)c4)c(CC(F)(F)F)c3c2)CC1 [Example 356, 4-(2-(3,4-dimethoxyphenyl)-3-(2,2,2-trifluoroethyl)-1H-indol-5-yl)-N-ethylpiperidine-1-carboxamide] | 6.21
COc1ccc(-c2[nH]c3ccc(C4CCN(C(=O)CC(F)(F)F)CC4)cc3c2CC(F)(F)F)cc1OC [Example 339, 1-(4-(2-(3,4-dimethoxyphenyl)-3-(2,2,2-trifluoroethyl)-1H-indol-5-yl)piperidin-1-yl)-3,3,3-trifluoropropan-1-one] | 6.48
COc1ccc(-c2[nH]c3ccc(C4CCN(CC(=O)N(C)CCN(C)C)CC4)cc3c2CC(F)(F)F)cc1OC [Example 367, 2-(4-(2-(3,4-dimethoxyphenyl)-3-(2,2,2-trifluoroethyl)-1H-indol-5-yl)piperidin-1-yl)-N-(2-(dimethylamino)ethyl)-N-methylacetamide] | 7.64
COc1ccc(-c2[nH]c3ccc(C4CCN(CC(=O)N5CCN(c6ncccn6)CC5)CC4)cc3c2CC(F)(F)F)cc1OC [Example 368, 2-(4-(2-(3,4-dimethoxyphenyl)-3-(2,2,2-trifluoroethyl)-1H-indol-5-yl)piperidin-1-yl)-1-(4-(pyrimidin-2-yl)piperazin-1-yl)ethan-1-one] | 6.80
